# According to paper PMC10289985, “Brigatinib pharmacokinetics in patients with chronic hepatic impairment” (Investigational New Drugs, 2023):
# Where two headings read alike, the source gives them in different places.
# Experiments:
# [1] = Safety and adverse event monitoring after a single 90-mg dose; assay type: in vivo, human
# Description: All enrolled participants who received brigatinib were included in the safety population. Adverse event (AE) monitoring occurred throughout the study. Physical examination was conducted at screening with additional symptom-directed physical examinations performed at the investigator’s discretion on study Days −1 and 9. Height, weight, and BMI were recorded at screening. Vital signs were recorded at screening; on Day −1; predose and at 0.5, 1, 2, 3, 4, 6, 8, 12, 24, 36, 48, 72, 96, 120, 144, and 168 hours postdose; and on Day 9. Electrocardiograms were conducted at screening, on Day −1, predose and at 3 and 48 hours postdose, and on Day 9. Clinical laboratory evaluations were performed at screening and on Days −1 and 9 and were reviewed by the investigator for clinical significance.
# TKI-naive ALK+ NSCLC = test system: TKI-naive ALK+ NSCLC; set-up: method as in PMID 34537440; conditions: 95% CI 0.35–0.66; P < 0.0001; cited from earlier work
# CYP3A = test system: CYP3A; set-up: method as in PMID 31287236; conditions: cited from earlier work
# [2] = Plasma protein binding of brigatinib by rapid equilibrium dialysis of participants' plasma samples; assay type: in vitro ADME, human; conditions: for fraction unbound: human, plasma, oral, 90 mg, pooled 2, 8, 24 h postdose
# Description: Blood samples were collected before brigatinib administration (predose) and at 0.5, 1, 1.5, 2, 2.5, 3, 4, 6, 8, 12, 24, 36, 48, 72, 96, 120, 144, 168, and 192 hours following brigatinib administration to measure brigatinib plasma concentrations. Samples to assess brigatinib plasma protein binding were collected at 2, 8, and 24 hours postdose.
# Free fractions of brigatinib in plasma samples were determined as previously reported. Briefly, free brigatinib was separated from protein-bound brigatinib by rapid equilibrium dialysis of plasma samples against warm (37° C) phosphate-buffered saline using the Thermo Scientific Single-Use Rapid Equilibrium Dialysis kit (Thermo Fisher Scientific, Waltham, MA) according to the manufacturer’s specifications. […] After incubation, samples were analyzed for brigatinib concentrations using liquid chromatography with tandem mass spectrometry as previously reported using a dual-range assay with a lower limit of quantitation of 0.100 ng/mL and an upper limit of quantitation of […].
# The PK-evaluable population was defined as participants who received the single dose of brigatinib, had no major protocol deviations that affected the PK analyses, and had sufficient data to calculate PK parameters. Individual participant brigatinib plasma concentration-time profiles were analyzed via noncompartmental analysis using Phoenix WinNonLin version 6.4 (Certara, Inc., Princeton, NJ) to calculate plasma PK parameters. Plasma PK parameters calculated for brigatinib included maximum observed plasma concentration (Cmax), time to first maximum observed plasma concentration (Tmax), area under the plasma concentration-time curve from time 0 to the time of the last measurable concentration (AUC0−last), area under the plasma concentration-time curve from time 0 to infinity (AUC0−∞), terminal elimination half-life (t1/2), apparent oral clearance (CL/F), and apparent volume of distribution during the terminal disposition phase (Vz/F). The fraction of unbound brigatinib in plasma was calculated using the following formula: % free (unbound) = [free brigatinib concentration measured in buffer after dialysis] / [total brigatinib concentration measured in plasma] × 100. Unbound brigatinib PK parameters were derived from the following formula (except for the unbound CL/F and unbound Vz/F, which were calculated as total CL/F or total Vz/F divided by the individual participant’s overall mean fraction unbound): unbound PK parameter = (PK parameter based on total concentrations) × (individual participant’s overall mean fraction unbound value).
structure (smiles),measurement,setting,value
COc1cc(N2CCC(N3CCN(C)CC3)CC2)ccc1Nc1ncc(Cl)c(Nc2ccccc2P(C)(C)=O)n1 [brigatinib],number of TEAEs,[1]; Child-Pugh A group,2 events
same,participants with one or more TEAEs,[1]; Child-Pugh A group (n=6),2 participants
same,number of TEAEs,[1]; Child-Pugh B group,13 events
same,participants with moderate TEAEs possibly related to the study drug,[1]; Child-Pugh B group,Two
same,participants with one or more TEAEs,[1]; Child-Pugh B group (n=6),4 participants
same,number of TEAEs,[1]; Child-Pugh C group,2 events
same,participants with one or more TEAEs,[1]; Child-Pugh C group (n=6),2 participants
same,participants with one or more treatment-emergent adverse events (TEAEs),"[1]; all 27 study participants, single 90 mg",13 participants
same,participants with constipation,[1]; all participants,2 participants
same,participants with dyspnea,[1]; all participants,2 participants
same,participants with headache,[1]; all participants,4 participants
same,participants with hypertension,[1]; all participants,2 participants
same,participants with nausea,[1]; all participants,2 participants
same,changes in laboratory values or electrocardiogram measurements,[1]; during the study,No clinically significant changes
same,discontinuation due to an AE,[1]; during the study,no participants discontinued
same,serious AEs,[1]; during the study,no serious AEs
same,number of TEAEs,[1]; healthy participant group,5 events
same,participants with one or more TEAEs,[1]; healthy participant group (n=9),5 participants
same,tolerability,"[1]; single 90-mg dose, healthy participants and participants with hepatic impairment",well tolerated
same,"PFS hazard ratio, brigatinib compared with crizotinib",TKI-naive ALK+ NSCLC,0.48
same,decrease of AUC0−∞ with the strong CYP3A inducer rifampicin,CYP3A,80%
same,increase of AUC0−∞ with the strong CYP3A inhibitor itraconazole,CYP3A,101%
same,concentration dependence of plasma protein binding,"[2]; 2, 8 and 24 h postdose within each hepatic function group",not concentration-dependent
same,"mean fraction unbound, Child-Pugh C relative to healthy participants",[2]; Child-Pugh C vs healthy participants,2.7 fold
same,fraction unbound,"[2]; Child-Pugh A, mild hepatic impairment (n=6), read-out: mean fraction unbound (free) in plasma",0.111
same,fraction unbound,"[2]; Child-Pugh A, read-out: pooled mean ± SD fraction unbound (converted)",0.111
same,fraction unbound,"[2]; Child-Pugh B, moderate hepatic impairment (n=6), read-out: mean fraction unbound (free) in plasma",0.108
same,fraction unbound,"[2]; Child-Pugh B, read-out: pooled mean ± SD fraction unbound (converted)",0.108
same,fraction unbound,"[2]; Child-Pugh C, severe hepatic impairment (n=6), read-out: mean fraction unbound (free) in plasma",0.231
same,fraction unbound,"[2]; Child-Pugh C, read-out: pooled mean ± SD fraction unbound (converted)",0.231
same,fraction unbound,"[2]; healthy participants, normal hepatic function (n=9), read-out: mean fraction unbound (free) in plasma",0.085
same,fraction unbound,"[2]; healthy participants, read-out: pooled mean ± SD fraction unbound (converted)",0.085
